Data taken from patent publication US20190151289A1, “Identification of Small Molecule Inhibitors of Jumonji AT-Rich Interactive Domain 1A (JARID1A) Histone Demethylase” (YALE UNIVERSITY, priority 2016, published 2019).
Like-named read-outs stand apart in the source and are kept apart here.

What was measured:
[1] = test system: ZR-75-1 cells; experiment: WST-1 cell proliferation assay, ZR-75-1; type: cell-based, human; conditions: ZR-75-1, 5 days of treatment
Procedure: (§1) WST-1 reagent from Roche Applied Sciences (11644807001) was used to measure cell number before drug addition and after 3 or 5 days of growth using previously described methods (Sayegh et al., 2013, J. Biol. Chem. 9408-9417). Cells were seeded in 96-well plates at the following number of cells per well: HeLa (2000), MCF7 (2000), ZR-75-1 (1000), MCF10A (1000), MDA-MB-231(5000). Assays were performed in technical quadruplicates and biological triplicates. DMSO was used at 0.1%. Relative absorbance was calculated by subtracting the average background (media only) signal, dividing by the average signal on day 0, and then dividing by the average day 5/day 0 ratio for the DMSO controls. Significance was calculated by unpaired, two-tailed student's t-test using GraphPad Prism 6.0 software.

[2] = test system: HeLa cells; experiment: WST-1 cell proliferation assay, HeLa; type: cell-based, human; conditions: after 3 days
Procedure: as §1

[3] = test system: HeLa cells; experiment: Colony formation assay, HeLa; type: cell-based, human
Procedure: (§2) Cells were seeded in 6-well plates at low density: HeLa, MCF7, BT474, and PC9 cells at 1000, 2000, 2500, and 2000 cells/well respectively. Media containing the prescribed drugs or 0.1% DMSO was replaced every 3 days. Trastuzumab was used at 5 μg/ml. Gefitinib was used at 2 μM. YUKA1 was used at 50 or 100 μM. Doxycycline was used at 1 μg/ml for 3 days. After 7-42 days depending on the rate of cell growth, cells were fixed in 4% para-formaldehyde in phosphate-buffered saline for 10 minutes rocking at room temperature. They were incubated in 0.05% crystal violet in double-distilled water for 30 minutes rocking at room temperature, washed with water, and dried 24 hours before photographing. ColonyArea, a plugin for ImageJ software, was used for quantification (Guzman et al., 2014, PloS One 9:e92444). Unpaired, two-tailed student's t-test was used to determine significance using GraphPad Prism 6.0 software.
HeLa (FIG. 11A) and MDA-MB231 cells (FIG. 11B) were treated with DMSO, 5 μM KDMS-C70 or 50 or 100 μM YUKA1 in colony-formation assays. The tables in FIGS. 11C and 11D depict the quantification of experimental data.

[4] = test system: BT474 cells; experiment: Colony formation assay, BT474 (trastuzumab tolerance); type: cell-based, human
Procedure: as §2

[5] = biological target: T1, full-length FLAG-KDM5A (Homo sapiens, UniProt P29375); experiment: AlphaScreen KDM5A demethylation assay (bio-H3K4me3 peptide); type: biochemical
T1 construct: Sf21 insect cells were infected with baculovirus to express full-length FLAG-KDM5A; made in house; host or cells: Sf21 insect cells (baculovirus)
Procedure: Histone demethylase assays were performed using previously described methods (Sayegh et al., 2013, J. Biol. Chem. 9408-9417), with the exception of all enzyme reactions containing 125 μM α-KG. Enzymes were used at the following approximate concentrations in validation experiments, chosen based on their activity in AlphaScreen assays: 19 nM FLAG-KDM5A, 15 nM FLAG-KDM5B, 6 nM FLAG-KDM5C, 29 nM His-FLAG-KDM6A, and 16 nM FLAG-KDM6B. 24 nM FLAG-KDM5A was used for Km determination experiments. Reactions were carried out for 1 hour, or were stopped by addition of 30 mM EDTA every 5 minutes for determining enzyme kinetics. Km values were calculated using the Michaelis-Menten non-linear regression analysis on GraphPad Prism 6.0 software. The concentration of DMSO in demethylation reactions was 0.05%. For reactions with catalase, catalase (Sigma C30) or an equal volume of dilution buffer was added to the peptide-containing buffer before addition of the demethylase. The final concentration of catalase in the reactions was 0.01 mg/ml.
The AlphaScreen general IgG (protein A) detection kit from PerkinElmer Life Sciences was used as described previously (Sayegh et al., 2013, J. Biol. Chem. 9408-9417). The luminescence emission was recorded at 570 nm using the AlphaScreen optic module on a Pherastar (BMG Labtech) or Envision (PerkinElmer Life Sciences) microplate reader.
8,861 compounds from the ChemBridge MW-Set, ChemBridge DIVERSet, MicroSource Gen-Plus, MicroSource Pure Natural Products, NIH Clinical Collection, and Enzo Epigenetics libraries were screened for inhibition of FLAG-KDM5A demethylase activity. Compounds were dissolved in DMSO and added at 20 μM to 384-well white plates (Corning 3574) containing 64 nM bio-H3K4me3 peptide in demethylase buffer prior to addition of 13 nM FLAG-KDM5A. Hits were selected at a threshold of three standard deviations (˜30% inhibition). A counter-screen was performed with the hits to eliminate any non-specific compounds. For this, 20 μM compounds were added to 64 nM bio-H3K4me2 peptide in demethylase buffer with no enzyme. Any hits that interfered with the positive signal detection were eliminated. Dose-response curves were performed on selected hits using 0.1-11 μM of compound. Further validation of top hits was performed using 5 μM of each compound or a dose-response curve using 0.05-50 μM of the compound.
Fresh compounds were ordered to confirm identity. IC50 curves were generated for YUKA1 and YUKA2 using 0.05-50 μM compound in 1 hour reactions. IC50 values were calculated by log transformation and non-linear regression log (inhibitor) versus response (three parameters) using Graphpad Prism 6.0 software. Percent activity of KDM5A was calculated for each data point by subtracting the background (average H3K4me3 signal) and dividing by the average signal for the DMSO controls. α-KG competition tests were performed using 150 nM H3K4me3 peptide and 50 μM Fe(II).
AlphaScreen technology (Perkin Elmer) was utilized to perform a screen for small molecule inhibitors of KDM5A. The assay was comprised of two steps, a demethylation reaction followed by detection of the product. A biotinylated H3K4me3 peptide was used as substrate in the demethylation reaction with KDM5A in the presence or absence of small molecule inhibitors. The presence of peptide product (H3K4me1/2) was detected using a product-specific antibody and beads. For this, acceptor beads coated in protein A bound to the antibody, which recognized the peptide product. Donor beads coated in streptavidin bound biotin on the peptide substrate. […]

T1 sequence (P29375 whole entry): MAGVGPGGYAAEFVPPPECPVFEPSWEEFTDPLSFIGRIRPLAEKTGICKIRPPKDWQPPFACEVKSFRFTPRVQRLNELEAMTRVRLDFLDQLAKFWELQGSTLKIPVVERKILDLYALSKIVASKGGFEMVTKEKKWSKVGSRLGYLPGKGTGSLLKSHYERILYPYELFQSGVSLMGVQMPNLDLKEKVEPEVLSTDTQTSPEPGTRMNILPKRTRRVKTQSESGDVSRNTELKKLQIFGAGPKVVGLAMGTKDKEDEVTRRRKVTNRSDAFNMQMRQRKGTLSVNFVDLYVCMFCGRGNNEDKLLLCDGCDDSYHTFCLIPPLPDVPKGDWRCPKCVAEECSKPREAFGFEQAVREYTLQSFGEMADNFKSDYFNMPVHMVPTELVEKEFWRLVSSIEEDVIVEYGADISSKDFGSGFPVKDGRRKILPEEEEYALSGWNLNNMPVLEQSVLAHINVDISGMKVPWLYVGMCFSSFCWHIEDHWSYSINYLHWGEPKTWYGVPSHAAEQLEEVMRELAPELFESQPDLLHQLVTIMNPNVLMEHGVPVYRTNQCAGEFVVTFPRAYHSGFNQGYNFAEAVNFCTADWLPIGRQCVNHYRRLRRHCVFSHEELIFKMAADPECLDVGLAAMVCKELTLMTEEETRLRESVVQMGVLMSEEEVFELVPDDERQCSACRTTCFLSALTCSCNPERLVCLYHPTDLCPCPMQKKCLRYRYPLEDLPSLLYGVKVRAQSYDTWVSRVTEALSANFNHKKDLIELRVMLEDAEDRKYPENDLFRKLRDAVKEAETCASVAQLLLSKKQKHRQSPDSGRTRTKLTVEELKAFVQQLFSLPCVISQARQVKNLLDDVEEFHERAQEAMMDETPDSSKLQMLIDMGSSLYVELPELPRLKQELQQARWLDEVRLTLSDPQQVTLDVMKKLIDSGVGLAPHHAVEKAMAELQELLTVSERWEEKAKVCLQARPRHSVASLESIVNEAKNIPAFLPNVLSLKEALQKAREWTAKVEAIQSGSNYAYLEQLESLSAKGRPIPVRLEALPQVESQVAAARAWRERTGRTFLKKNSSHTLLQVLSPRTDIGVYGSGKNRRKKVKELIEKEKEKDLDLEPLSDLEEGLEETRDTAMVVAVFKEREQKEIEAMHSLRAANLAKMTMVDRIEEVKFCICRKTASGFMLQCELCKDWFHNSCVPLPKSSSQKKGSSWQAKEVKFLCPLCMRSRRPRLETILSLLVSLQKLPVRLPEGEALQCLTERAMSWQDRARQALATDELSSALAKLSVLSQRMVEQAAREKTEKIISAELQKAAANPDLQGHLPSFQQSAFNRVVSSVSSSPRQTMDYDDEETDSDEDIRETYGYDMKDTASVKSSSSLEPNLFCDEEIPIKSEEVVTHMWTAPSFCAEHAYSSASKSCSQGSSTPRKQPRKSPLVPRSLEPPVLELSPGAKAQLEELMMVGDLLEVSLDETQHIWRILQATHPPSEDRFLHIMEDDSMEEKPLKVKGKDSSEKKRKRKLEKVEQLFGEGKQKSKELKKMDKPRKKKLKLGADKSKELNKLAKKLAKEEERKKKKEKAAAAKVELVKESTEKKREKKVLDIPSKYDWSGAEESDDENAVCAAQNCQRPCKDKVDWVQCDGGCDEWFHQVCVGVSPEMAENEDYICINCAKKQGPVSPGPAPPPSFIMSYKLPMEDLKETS

In the case of `C=CCOc1c(CNn2cnnc2S)cccc1OC` [YUKA1, 4-([2-(allyloxy)-3-methoxybenzyl]amino)-4H-1,2,4-triazole-3-thiol], the cell proliferation [1] is reported as “decreased cell proliferation during 5 days of treatment in a dose-dependent manner”, the “cell proliferation relative to DMSO” value [2] is reported as “less than half of DMSO-treated cells” and the “growth in colony-formation assay” value ([3]; 5 μM KDMS-C70 or 50 or 100 μM YUKA1) is reported as “suppresses growth”. The “number of colonies formed vs DMSO control” value ([3]; two-week treatment) was “significantly reduced”, the “cell growth, compound alone” value ([4]; BT474, compound alone) was “not changed” and the “emergence of colonies under trastuzumab” value ([4]; BT474, trastuzumab 5 μg/ml plus compound) was “significantly less”. For the same molecule, the “mode of KDM5A inhibition with respect to Fe(II)” value [5] was “uncompetitive with respect to Fe(II)”, the “KDM5A enzyme inhibition at low Fe(II)” value ([5]; 5 μM Fe(II)) was “too weak to generate robust IC50 curves” and the “effect of catalase on inhibitory potency against KDM5A” value ([5]; 0.01 mg/ml catalase) was “did not affect the inhibitory potency”. The IC50 ([5]; 0.05-50 μM compound, 1 hour reactions, read-out: average in vitro IC50 against KDM5A) was 2660 nM, the “change of KDM5A IC50 with α-KG concentration” value ([5]; 16-fold range of α-KG, 150 nM H3K4me3 peptide, 50 μM Fe(II)) was “did not change significantly” and the IC50 ([5]; inhibitors found by high throughput screening, read-out: KDM5A IC50) was 1320 nM.
